# Test results as given in US10813909B2 (THE REGENTS OF THE UNIVERSITY OF CALIFORNIA, priority 2016, dated 2020).
# Entries after “also recorded” stand apart in the source; their conditions may differ.
# Legend:
# BIRC5 = experiment: Cardiac glycosides, BIRC5 expression in pancreatic cancer; assay type: cell-based
# [1] = system: patient-derived pancreatic cancer cell line #5 (PDCL-5); experiment: Cell viability/proliferation (CellTiter-Glo, Gaussia luciferase), patient-derived line #5; assay type: cell-based, human; details: in vitro; metformin 500 μM, simvastatin 4 μM, digoxin 50 nM, alone or combined; paclitaxel 100 nM where added
# [2] = system: patient-derived pancreatic cancer cell line #15 (PDCL-15); experiment: Cell viability/proliferation (CellTiter-Glo, Gaussia luciferase), patient-derived line #15; assay type: cell-based, human; details: in vitro; metformin 500 μM, simvastatin 4 μM, digoxin 50 nM, alone or combined; paclitaxel 100 nM where added
# MIA PaCa2 cells = experiment: Cell viability/proliferation, MIA PaCa2; assay type: cell-based, human; details: in vitro; metformin 500 μM, simvastatin 4 μM, digoxin 50 nM, alone or combined; paclitaxel 100 nM where added
# PANC1 cells = experiment: Cell viability/proliferation, PANC1; assay type: cell-based, human; details: in vitro; metformin 500 μM, simvastatin 4 μM, digoxin 50 nM, alone or combined; paclitaxel 100 nM where added
# AsPC1 cells = experiment: Cell viability, AsPC1; assay type: cell-based, human; details: in vitro
# Capan2 cells = experiment: Cell viability, Capan2; assay type: cell-based, human; details: in vitro, with and without paclitaxel
# BIRC5 mRNA [3] = experiment: BIRC5 mRNA expression in PDCL5 in vitro; assay type: cell-based, human
# BIRC5 mRNA [4] = experiment: BIRC5 mRNA expression in PDCL15 in vitro; assay type: cell-based, human
# BIRC5 promoter = experiment: High-throughput drug screening with BIRC5 synthetic promoter; assay type: cell-based, human; details: high-throughput screening of FDA-approved drug libraries, MIA PaCa2 cells
# Text: FIG. 12 is a graph illustrating BIRC5 SP high-throughput (HTS) drug screening in MIA PaCa2 cells, in accordance with one or more embodiments of the invention;
# Pancreatic ductal adenocarcinoma (PDAC) is one of the most deadly forms of cancer and almost all patients with PDAC succumb to this lethal disease within months of diagnosis. To fight against PDAC, we utilized the concept of an “actionable gene”, on which action can be taken to alter disease progression or guide choice of therapy. We have identified actionable gene, BIRC5, for PDAC using microarray data sets and our own RNA-Seq data of PDAC patient specimens. […] .
# [5] = mice; cited from earlier work
# DUSP15 and RHOB = experiment: Cell death/apoptosis related gene expression in PDCL5 (RNA-Seq, real-time PCR); details: PDCL5 in vitro
# [6] = system: pancreatic cancer cell lines; experiment: Proliferation, viability and apoptosis of pancreatic cancer cell lines in vitro (line not specified); assay type: cell-based, human
# [7] = system: HK2, LDHA, LDHB, ENO2, ENO1; experiment: Transcriptome analysis of glycolysis/TCA cycle/Warburg effect genes in pancreatic cancer cell lines; details: patient-derived and commercial pancreatic cancer cell lines
Structure (SMILES),BIRC5 expression in pancreatic cancer (BIRC5),"cell viability / proliferation, MIA PaCa2 (MIA PaCa2 cells)","BIRC5 mRNA expression, PDCL #5 (BIRC5 mRNA [3])","BIRC5 mRNA expression, PDCL #15 (BIRC5 mRNA [4])",other results
C[C@]12CC[C@H](O)C[C@H]1CC[C@@H]1[C@@H]2CC[C@]2(C)[C@@H](C3=CC(=O)OC3)CC[C@]12O [Digitoxigenin],inhibit BIRC5 expression,,,,
"C[C@H]1O[C@@H](O[C@H]2[C@@H](O)C[C@H](O[C@H]3[C@@H](O)C[C@H](O[C@H]4CC[C@@]5(C)[C@H](CC[C@@H]6[C@@H]5C[C@@H](O)[C@]5(C)[C@@H](C7=CC(=O)OC7)CC[C@]65O)C4)O[C@@H]3C)O[C@@H]2C)C[C@H](O)[C@@H]1O [Digoxin, digoxin]",inhibit BIRC5 expression,suppresses; also recorded: suppress,suppress,suppress,"cell viability / proliferation, patient-derived pancreatic cancer cell #5 [1]: suppresses; also recorded: suppress; cell viability / proliferation, patient-derived pancreatic cancer cell #15 [2]: suppresses; also recorded: suppress; cell viability / proliferation, PANC1 (PANC1 cells): suppresses; also recorded: suppress; cell viability, AsPC1 (AsPC1 cells): suppress; cell viability, Capan2 (Capan2 cells): suppress; expression from the BIRC5 promoter (BIRC5 promoter): target BIRC5; Lethal Dose (LD50) [5]: 4 mg/kg; cell death/apoptosis related gene expression (DUSP15, RHOB) (DUSP15 and RHOB): do not have an effect"
CC(=O)O[C@H]1C[C@H](O[C@H]2[C@@H](O)C[C@H](O[C@H]3[C@@H](O)C[C@H](O[C@H]4CC[C@@]5(C)[C@H](CC[C@@H]6[C@@H]5C[C@@H](O)[C@]5(C)[C@@H](C7=CC(=O)OC7)CC[C@]65O)C4)O[C@@H]3C)O[C@@H]2C)O[C@H](C)[C@H]1O[C@@H]1O[C@H](CO)[C@@H](O)[C@H](O)[C@H]1O [Lanatoside C],inhibit BIRC5 expression,,,,
"CC[C@H](C)C(=O)O[C@H]1C[C@@H](C)C=C2C=C[C@H](C)[C@H](CC[C@@H]3C[C@@H](O)CC(=O)O3)[C@H]21 [Lovastatin, lovastatin]",,suppresses,suppress,suppress,
"CN(C)C(=N)N=C(N)N [Metformin, metformin]",,suppresses; also recorded: suppress,suppress,suppress,"cell viability / proliferation, patient-derived pancreatic cancer cell #5 [1]: suppresses; also recorded: suppress; cell viability / proliferation, patient-derived pancreatic cancer cell #15 [2]: suppresses; also recorded: suppress; cell viability / proliferation, PANC1 (PANC1 cells): suppresses; also recorded: suppress; cell viability, AsPC1 (AsPC1 cells): suppress; cell viability, Capan2 (Capan2 cells): suppress; cell proliferation / viability, pancreatic cancer cell lines [6]: suppresses; expression from the BIRC5 promoter (BIRC5 promoter): target BIRC5; cell death/apoptosis related gene expression (DUSP15, RHOB) (DUSP15 and RHOB): do not have an effect; glycolysis / TCA cycle / Warburg effect related gene expression [7]: inhibitory effect"
"C[C@@H]1O[C@@H](O[C@H]2C[C@@H](O)[C@]3(CO)[C@H]4[C@H](O)C[C@]5(C)[C@@H](C6=CC(=O)OC6)CC[C@]5(O)[C@@H]4CC[C@]3(O)C2)[C@H](O)[C@H](O)[C@H]1O [Ouabain, ouabain]",inhibit BIRC5 expression,suppresses,,,
C[C@]12CC[C@H](O)C[C@H]1CC[C@@H]1[C@@H]2CC[C@]2(C)[C@@H](c3ccc(=O)oc3)CC[C@]12O [bufalin],inhibit BIRC5 expression,,,,
CC(C)n1c(/C=C/C(O)CC(O)CC(=O)O)c(-c2ccc(F)cc2)c2ccccc21 (centres unmarked) [fluvastatin],,suppresses,suppress,suppress,
